Test results taken from patent US20100323979A1, “METHODS AND COMPOSITIONS FOR INHIBITING PROLIFERATION OF ANEUPLOID CELLS” (priority 2009, published 2010).

What was measured:
[1] = test system: inducible Hsp70 in trisomic MEFs; test: Inducible Hsp70 levels by immunoblotting in trisomic MEFs; format: cell-based, mouse; conditions: indicated doses, FIG. 4D
Description: (§1) Western blotting was performed as previously described (Dickins, R. A. et al., 2005). Proteins were detected by using the following antibodies: anti-AMPKα (Cell signaling technology), anti-Hsp70 (Stressgen), and anti-β actin (Sigma). Secondary antibodies were horseradish peroxidase-conjugated anti-mouse or anti-rabbit IgG (GE Healthcare; 1:5,000).

[2] = test system: trisomic primary MEF cells; test: Cell proliferation assay, trisomic MEFs; format: cell-based, mouse; conditions: for sensitivity in relation to size of the additional chromosome: trisomy 1 versus trisomy 16 or 19
Description: MEF cells were cultured in DMEM supplemented with 10% FBS, 2 mM glutamine, 50 U/ml penicillin, and 50 U/ml streptomycin. […] Lymphoma cells were cultured in IMDM supplemented with 10% FBS, 2 mM glutamine, 50U/ml penicillin, 50 U/ml streptomycin and […] beta-mercaptoethanol. All cells were cultured at 37° C. with 5% CO2 in a humidified environment. In all experiments, cells were counted using a Cellometer Auto T4 automated hemacytometer (Nexcelom). […] After infection with shRNA constructs, GFP+FACS sorted cells were plated at a density of 5×10^5 cells/well in 6-well plates. Cells were treated with AICAR at various concentrations or solvent control then counted at indicated time point.

[3] = test system: Eμ-Myc;Arf−/− lymphoma cells; test: Cell proliferation assay, euploid lymphoma cells; format: cell-based; conditions: various concentrations, 24 h, FIG. 2A
Description: (§2) All euploid (WT) and aneuploid (Ts) mouse embryonic fibroblast (MEF) lines were established as previously described (Williams, B. R. et al., 2008). MEF cells were cultured in DMEM supplemented with 10% FBS, 2 mM glutamine, 50 U/ml penicillin, and 50 U/ml streptomycin. Eμ-Myc;Arf−/− and Eμ-Myc;p53−/− lymphoma cells were established as previously described (Wendel, H. et al., 2006). Lymphoma cells were cultured in IMDM supplemented with 10% FBS, 2 mM glutamine, 50U/ml penicillin, 50 U/ml streptomycin and […] beta-mercaptoethanol. All cells were cultured at 37° C. with 5% CO2 in a humidified environment. In all experiments, cells were counted using a Cellometer Auto T4 automated hemacytometer (Nexcelom).
(§3) Exponentially growing early passage MEFs were plated at a density of 2×10^5 cells/well in 6-well plates and lymphoma cells were cultured and infected as described previously (Hemann, M. T. et al., 2003). After infection with shRNA constructs, GFP+FACS sorted cells were plated at a density of 5×10^5 cells/well in 6-well plates. Cells were treated with AICAR at various concentrations or solvent control then counted at indicated time point.

[4] = test system: autophagy (LC3, BNIP3) in trisomy 13 and 16 MEFs; test: Autophagy markers in trisomic MEFs (LC3 immunoblot, RT-qPCR, GFP-LC3 puncta); format: cell-based, mouse
Description: as §1
For GFP-LC3 fluorescence imaging, wild-type GFP-LC3 and trisomic GFP-LC3 MEF cells were exposed to the indicated drug treatments in phenol red-free DMEM. All fluorescence images were acquired using a Nikon digital sight DS-Qil MC camera on a Nikon Eclipse Ti inverted microscope. All single plane images were acquired and processed using the NIS-Element AR 3.0 software.
Total RNA from MEFs was isolated using the RNeasy Mini Kit (Qiagen) according to the manufacturer's instructions. 1μg RNA was used to generate cDNAs using RETROscript kit (Ambion). qPCR was performed by mixing iQ SYBR Green Supermix (Bio-Rad) with the primers described in Table S2, and amplified using a LightCycler 480 II (Roche). The LightCycler software was used to evaluate gene expression level and normalized to a ribosomal reference gene, rpl19.

[5] = test system: Eμ-Myc;p53−/− lymphoma cells; test: Cell proliferation assay, aneuploid lymphoma cells; format: cell-based
Description: as §2
AMPK-specific shRNA constructs were generated as described previously (Silva, J. M. et al., 2005). Targeting sequences were selected based on BIOPREDsi design (Huesken, D, et al., 2005).
as §3

Row | SMILES | Hsp70 activity (levels of inducible Hsp70) [1] | sensitivity of MEFs carrying trisomies (cell count relative to non-treated control) ([2]; trisomic for chromosome 1, 13, 16 or 19, 0-0.5 mM, 72 or 144 h, FIG. 1) | sensitivity of euploid immortalized B-cells (cell count relative to control) [3] | LC3 incorporation into autophagosomes ([4]; 24 hours after treatment, LC3-GFP puncta, FIG. 4A-4C) | LC3 expression ([4]; FIG. 4A-4B) | Bnip3 expression ([4]; RT-qPCR normalized to rpl19, FIG. 4B) | proliferation after knock-down of AMPK ([5]; Eμ-Myc;p53−/− infected with AMPK-specific shRNA, FIG. 2B) | sensitivity of aneuploid B cells (cell count relative to control) ([5]; Eμ-Myc;p53−/−, various concentrations, 24 h, FIG. 2A) | sensitivity in relation to size of the additional chromosome ([2]; FIG. 3A/3B) | proliferation of trisomy 1, 13, 16 and 19 cells ([2]; 100 nM, cell number after 3 days, FIG. 3A) | proliferation of trisomic/aneuploid cells versus wild-type (cell number) ([2]; single agent, cell number after 3 days, FIG. 3A/3B)
1 | NC(=O)c1ncn([C@@H]2O[C@H](CO)[C@@H](O)[C@H]2O)c1N [AICAR, 5-aminoimidazole-4-carboxamide riboside] | further increase | sensitive | not sensitive | further induced | further induced | further induced | proliferate the same in the presence and absence of AICAR | sensitive | – | – | –
2 | CCN(CC)CCCC(C)Nc1ccnc2cc(Cl)ccc12 (stereo not drawn) [chloroquine] | – | – | – | – | – | – | – | – | correlated with the size of the additional chromosome | – | –
3 | C=CCNC1=C2C[C@@H](C)C[C@H](OC)[C@H](O)[C@@H](C)/C=C(\C)[C@H](OC(N)=O)[C@@H](OC)/C=C\C=C(/C)C(=O)NC(=CC1=O)C2=O [17-AAG, 17-(Allylamino)-17-demethoxygeldanamycin] | – | – | – | – | – | – | – | – | higher sensitivity | impaired | preferentially inhibited
